Test results published in publication PMC9019904, “AD Informer Set: Chemical tools to facilitate Alzheimer's disease drug discovery” (Alzheimer's & Dementia : Translational Research & Clinical …, 2022).
Converted amounts (≈) assume the structure as drawn.

Experiments:
[1] = Kinetic solubility in aqueous buffer pH 7.4 by total chemiluminescent nitrogen determination (Analiza); conditions: aqueous buffer, pH 7.4, aqueous buffer, kinetic from dmso stock
cellular system = conditions: published cellular activity at 10 μM; cited from earlier work
[2] = test system: HMC3 (human microglia) cell line; test: pHrodo-myelin phagocytosis/cell viability high content imaging assay: phagocytosis signal; assay type: cell-based
In short: (§1)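 Imaging at high content captured pHrodo-myelin uptake about 22 hours after its addition, alongside a viability read-out from the same cells. Three measurements were derived, with intensity increase marking early apoptosis and decrease marking later apoptosis.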

[3] = test system: BV2 (mouse microglia) cell line; test: as above; assay type: cell-based
In short: as §1

[4] = test system: BV2 (mouse microglia) cell line; test: pHrodo-myelin phagocytosis/cell viability high content imaging assay: viability (cell count, nuclear area, nuclear intensity)
In short: (§2)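 Duplicate single-point screen at 10 μM over 48 h, combined with pHrodo-myelin phagocytosis during the last 20 h. Cytotoxicity is taken from imaged cell counts and nuclear intensity changes, normalized to untreated wells as % control.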

[5] = test system: HMC3 (human microglia) cell line; test: as above
In short: as §2

[6] = BV2 cells, 10 μM, cell count <70% control

solubility kinetic [1]	SMILES	Reported as cell active (<10 μM) (cellular system)	also measured
7.1 µM (≈ 3.51 µg/mL)	Cc1cc(C)nc(NS(=O)(=O)c2ccc(NC(=O)NC(=O)c3ccc(Cl)cc3Cl)cc2)n1 [LDN-193188]	Y (Published data supports that the compound is active in a cellular system when dosed at 10 μM (Y/N))	
	Cl.N=C(CCl)NCCC[C@H](NC(=O)c1ccccc1)C(N)=O [Cl-amidine]	Y (Published data supports that the compound is active in a cellular system when dosed at 10 μM (Y/N))	Inhibition of human microglial phagocytosis at 10 μM (<70% control) ([2]; HMC3 cells, 10 μM): Y (The compound was found to inhibit phagocytosis (response threshold: <70% control) when human immortalized microglial cells were dosed at 10 μM (Y: yes))
	C[C@@H]1O[C@@H](O[C@H]2[C@H](Oc3cc(O)c4c(c3)O[C@H](c3ccc(O)cc3)CC4=O)O[C@H](CO)[C@@H](O)[C@@H]2O)[C@H](O)[C@H](O)[C@H]1O [Naringin]	Y (Published data supports that the compound is active in a cellular system when dosed at 10 μM (Y/N))	Stimulation of mouse microglial phagocytosis at 10 μM (>150% control) ([3]; BV2 cells, 10 μM): Y (The compound was found to stimulate phagocytosis (response threshold: >150% control) when murine immortalized microglial cells were dosed at 10 μM (Y: yes)); Inhibition of human microglial phagocytosis at 10 μM (<70% control) ([2]; HMC3 cells, 10 μM): Y (The compound was found to inhibit phagocytosis (response threshold: <70% control) when human immortalized microglial cells were dosed at 10 μM (Y: yes))
	C=C(c1ccc(C(=O)O)cc1)c1cc2c(cc1C)C(C)(C)CCC2(C)C [Bexarotene]	Y (Published data supports that the compound is active in a cellular system when dosed at 10 μM (Y/N))	
2.1 µM (≈ 1.35 µg/mL)	Cc1c(COc2cc(OCc3cccc(C#N)c3)c(CN3C[C@H](O)C[C@@H]3C(=O)O)cc2Cl)cccc1-c1ccc2c(c1)OCCO2 [BMS-1166]	Y (Published data supports that the compound is active in a cellular system when dosed at 10 μM (Y/N))	
	CC(=O)O[C@@H]1[C@@H](OC(C)=O)[C@@H](O)[C@H](Oc2c(-c3ccc(O)cc3)oc3cc(O)cc(O)c3c2=O)O[C@H]1C [SL0101]	Y (Published data supports that the compound is active in a cellular system when dosed at 10 μM (Y/N))	Inhibition of human microglial phagocytosis at 10 μM (<70% control) ([2]; HMC3 cells, 10 μM): Y (The compound was found to inhibit phagocytosis (response threshold: <70% control) when human immortalized microglial cells were dosed at 10 μM (Y: yes))
	Cc1cc2c(cc1-c1cc(/C=C\C(=O)O)ccc1O)C(C)(C)CCC2(C)C [CD3254]	Y (Published data supports that the compound is active in a cellular system when dosed at 10 μM (Y/N))	
	CCCCCCCCCCCCCCCCOCC(COCC(F)(F)F)OP(=O)([O-])OC.[Li+] (centres unmarked) [MJ-33 (lithium salt)]	Y (Published data supports that the compound is active in a cellular system when dosed at 10 μM (Y/N))	Inhibition of human microglial phagocytosis at 10 μM (<70% control) ([2]; HMC3 cells, 10 μM): Y (The compound was found to inhibit phagocytosis (response threshold: <70% control) when human immortalized microglial cells were dosed at 10 μM (Y: yes))
	O=S(=O)(NC1CCNCC1)c1cc(S(=O)(=O)c2ccccc2)ccc1C(F)(F)F [WAY-316606]	Y (Published data supports that the compound is active in a cellular system when dosed at 10 μM (Y/N))	Stimulation of mouse microglial phagocytosis at 10 μM (>150% control) ([3]; BV2 cells, 10 μM): Y (The compound was found to stimulate phagocytosis (response threshold: >150% control) when murine immortalized microglial cells were dosed at 10 μM (Y: yes))
	Cc1cc2c(cc1C(=O)c1ccc(C(=O)O)cc1)C(C)(C)CCC2(C)C [LG-100064]	Y (Published data supports that the compound is active in a cellular system when dosed at 10 μM (Y/N))	
57 µM (≈ 20.4 µg/mL)	CN(CCOc1ccc(CC2SC(=O)NC2=O)cc1)c1ccccn1 (centres unmarked) [Rosiglitazone]	Y (Published data supports that the compound is active in a cellular system when dosed at 10 μM (Y/N))	
< 0.7 µM	CN1c2ccc([N+](=O)[O-])cc2N=C(c2ccc(C(=O)O)cc2)c2cc3c(cc21)C(C)(C)CCC3(C)C [HX531]	Y (Published data supports that the compound is active in a cellular system when dosed at 10 μM (Y/N))	Mouse microglial cytotoxicity at 10 μM (<70% control) [4, 6]: Y (The compound was found to be cytotoxic (cell count threshold: <70% control) when murine immortalized microglial cells were dosed at 10 μM (Y: yes))
	CC(C)(C(=O)O)c1ccc(C(O)CCCN2CCC(C(O)(c3ccccc3)c3ccccc3)CC2)cc1 (centres unmarked) [Fexofenadine]	Y (Published data supports that the compound is active in a cellular system when dosed at 10 μM (Y/N))	
92.8 µM (≈ 33.7 µg/mL)	Cc1cc2c(cc1C1(c3ccc(C(=O)O)cn3)CC1)C(C)(C)CCC2(C)C [LG 100268]	Y (Published data supports that the compound is active in a cellular system when dosed at 10 μM (Y/N))	
	C[C@H](CCCC(C)(C)O)[C@H]1CC[C@H]2[C@@H]3CC=C4C[C@@H](O)CC[C@]4(C)[C@H]3CC[C@]12C [25-Hydroxycholesterol]	Y (Published data supports that the compound is active in a cellular system when dosed at 10 μM (Y/N))	Inhibition of mouse microglial phagocytosis at 10 μM (<70% control) ([3]; BV2 cells, 10 μM): Y (The compound was found to inhibit phagocytosis (response threshold: <70% control) when murine immortalized microglial cells were dosed at 10 μM (Y: yes)); Inhibition of human microglial phagocytosis at 10 μM (<70% control) ([2]; HMC3 cells, 10 μM): Y (The compound was found to inhibit phagocytosis (response threshold: <70% control) when human immortalized microglial cells were dosed at 10 μM (Y: yes))
	CCCCCOc1cc2c(cc1-c1cc(/C=C/C(=O)O)ccc1O)C(C)(C)CCC2(C)C [UVI 3003]	Y (Published data supports that the compound is active in a cellular system when dosed at 10 μM (Y/N))	
135 µM	Nc1ncnc2c1nc(Sc1ccc(Cl)cc1)n2[C@@H]1O[C@@H]2COP(=O)([O-])O[C@H]2[C@H]1O.[Na+] [pCPT-cAMP]	Y (Published data supports that the compound is active in a cellular system when dosed at 10 μM (Y/N))	
	C=CC[N+]1([C@H]2C[C@H]3[C@@H]4CC[C@H]5C[C@H](O)[C@@H](N6CCOCC6)C[C@]5(C)[C@H]4CC[C@]3(C)[C@H]2OC(C)=O)CCCC1 [Rocuronium Bromide]	Y (Published data supports that the compound is active in a cellular system when dosed at 10 μM (Y/N))	Inhibition of human microglial phagocytosis at 10 μM (<70% control) ([2]; HMC3 cells, 10 μM): Y (The compound was found to inhibit phagocytosis (response threshold: <70% control) when human immortalized microglial cells were dosed at 10 μM (Y: yes))
	CNC(=O)c1cccc(-c2ccc3c(N4CCOC[C@@H]4C)nc(N4CCOC[C@@H]4C)nc3n2)c1 [Vistusertib]	Y (Published data supports that the compound is active in a cellular system when dosed at 10 μM (Y/N))	Mouse microglial cytotoxicity at 10 μM (<70% control) [4, 6]: Y (The compound was found to be cytotoxic (cell count threshold: <70% control) when murine immortalized microglial cells were dosed at 10 μM (Y: yes)); Stimulation of mouse microglial phagocytosis at 10 μM (>150% control) ([3]; BV2 cells, 10 μM): Y (The compound was found to stimulate phagocytosis (response threshold: >150% control) when murine immortalized microglial cells were dosed at 10 μM (Y: yes))
58.5 µM (≈ 21.6 µg/mL)	O=C1CCc2cc(OCCCCc3nnnn3C3CCCCC3)ccc2N1 [Cilostazol (OPC 13013)]	Y (Published data supports that the compound is active in a cellular system when dosed at 10 μM (Y/N))	
125 µM (≈ 96.4 µg/mL)	CN(C)CCCOc1c(Br)cc(/C=C/C(=O)NCCCOc2c(Br)cc(CCN(C)C)cc2Br)cc1Br [Psammaplysene A]		Mouse microglial cytotoxicity at 10 μM (<70% control) ([4]; 10 μM, BV2): Y (The compound was found to be cytotoxic (cell count threshold: <70% control) when murine immortalized microglial cells were dosed at 10 μM (Y: yes)); Human microglial cytotoxicity at 10 μM (<70% control) ([5]; 10 μM, HMC3): Y (The compound was found to be cytotoxic (cell count threshold: <70% control) when human immortalized microglial cells were dosed at 10 μM (Y: yes)); Inhibition of mouse microglial phagocytosis at 10 μM (<70% control) ([3]; 10 μM, BV2): Y (The compound was found to inhibit phagocytosis (response threshold: <70% control) when murine immortalized microglial cells were dosed at 10 μM (Y: yes)); Inhibition of human microglial phagocytosis at 10 μM (<70% control) ([2]; 10 μM, HMC3): Y (The compound was found to inhibit phagocytosis (response threshold: <70% control) when human immortalized microglial cells were dosed at 10 μM (Y: yes))
18.4 µM (≈ 8.32 µg/mL)	O=C1C=C(NCCc2cc(Br)c(O)c(Br)c2)C(=O)c2ncccc21 [NSC668394]		Mouse microglial cytotoxicity at 10 μM (<70% control) ([4]; BV2, 10 μM): Y (The compound was found to be cytotoxic (cell count threshold: <70% control) when murine immortalized microglial cells were dosed at 10 μM (Y: yes)); Human microglial cytotoxicity at 10 μM (<70% control) ([5]; HMC3, 10 μM): Y (The compound was found to be cytotoxic (cell count threshold: <70% control) when human immortalized microglial cells were dosed at 10 μM (Y: yes)); Stimulation of mouse microglial phagocytosis at 10 μM (>150% control) ([3]; BV2, 10 μM): Y (The compound was found to stimulate phagocytosis (response threshold: >150% control) when murine immortalized microglial cells were dosed at 10 μM (Y: yes)); Inhibition of human microglial phagocytosis at 10 μM (<70% control) ([2]; HMC3, 10 μM): Y (The compound was found to inhibit phagocytosis (response threshold: <70% control) when human immortalized microglial cells were dosed at 10 μM (Y: yes))

SMILES	solubility kinetic [1]	Reported as cell active (<10 μM) (cellular system)	also measured
COc1ccc(CCN2CCN(CCCc3ccccc3)CC2)cc1OC.Cl.Cl [Cutamesine (SA 4503)]	108 µM	Y (Published data supports that the compound is active in a cellular system when dosed at 10 μM (Y/N))	
CCc1ccc(CCOc2ccc(CC3SC(=O)NC3=O)cc2)nc1 (centres unmarked) [Pioglitazone]	3.2 µM (≈ 1.14 µg/mL)	Y (Published data supports that the compound is active in a cellular system when dosed at 10 μM (Y/N))	
